According to PubChem BioAssay (NCI):
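Values below derive from 48-hour exposures of cells grown in 96-well plates, with endpoints linearly interpolated between the two concentrations bracketing the appropriate inhibition level. The concentration for full growth arrest is given as TGI.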

Columns and labels:
Test in all cases: growth of human tumour cells (NCI), 48 h
SR leukemia = test system: SR leukemia
NCI-H522 lung = test system: NCI-H522 lung
HCC-2998 colon = test system: HCC-2998 colon
OVCAR-4 ovarian = test system: OVCAR-4 ovarian
HOP-62 NSCLC = test system: HOP-62 NSCLC
HCT-15 colon = test system: HCT-15 colon
RXF-631 renal = test system: RXF-631 renal
COLO 205 colon = test system: COLO 205 colon
LOX IMVI melanoma = test system: LOX IMVI melanoma
HOP-92 NSCLC = test system: HOP-92 NSCLC
HL-60(TB) leukemia = test system: HL-60(TB) leukemia
SF-295 CNS = test system: SF-295 CNS
SF-268 CNS = test system: SF-268 CNS
SNB-78 CNS = test system: SNB-78 CNS
RXF 393 renal = test system: RXF 393 renal
KM12 colon = test system: KM12 colon
TK-10 renal = test system: TK-10 renal
UACC-257 melanoma = test system: UACC-257 melanoma
SK-MEL-28 melanoma = test system: SK-MEL-28 melanoma
XF 498 CNS = test system: XF 498 CNS
MOLT-4 leukemia = test system: MOLT-4 leukemia
ACHN renal = test system: ACHN renal
OVCAR-5 ovarian = test system: OVCAR-5 ovarian
786-0 renal = test system: 786-0 renal
RPMI-8226 leukemia = test system: RPMI-8226 leukemia
LXFL 529 NSCLC = test system: LXFL 529 NSCLC
HCT-116 colon = test system: HCT-116 colon
SNB-75 CNS = test system: SNB-75 CNS
SNB-19 CNS = test system: SNB-19 CNS
NCI-H23 lung = test system: NCI-H23 lung
KM20L2 colon = test system: KM20L2 colon
SK-OV-3 ovarian = test system: SK-OV-3 ovarian
U251 CNS = test system: U251 CNS
NCI-H226 lung = test system: NCI-H226 lung
SK-MEL-5 melanoma = test system: SK-MEL-5 melanoma
A549 NSCLC = test system: A549 NSCLC
M14 melanoma = test system: M14 melanoma
MALME-3M melanoma = test system: MALME-3M melanoma
SW-620 colon = test system: SW-620 colon
SK-MEL-2 melanoma = test system: SK-MEL-2 melanoma
DMS 273 small cell lung = test system: DMS 273 small cell lung
DLD-1 colon = test system: DLD-1 colon
CAKI-1 renal = test system: CAKI-1 renal
SN12C renal = test system: SN12C renal
HOP-18 NSCLC = test system: HOP-18 NSCLC
UACC-62 melanoma = test system: UACC-62 melanoma
OVCAR-8 ovarian = test system: OVCAR-8 ovarian
UO-31 renal = test system: UO-31 renal
CCRF-CEM leukemia = test system: CCRF-CEM leukemia
IGROV1 ovarian = test system: IGROV1 ovarian
NCI-H460 lung = test system: NCI-H460 lung
HT29 colon = test system: HT29 colon
K-562 leukemia = test system: K-562 leukemia
DMS 114 small cell lung = test system: DMS 114 small cell lung
A498 renal = test system: A498 renal

Measured: TGI

C#CCn1c(=O)[nH]c(=O)c2cccnc21
not listed: UACC-62 melanoma | OVCAR-8 ovarian | UO-31 renal | CCRF-CEM leukemia | IGROV1 ovarian | NCI-H460 lung | HT29 colon | K-562 leukemia | DMS 114 small cell lung | A498 renal
> 100 µM: all other assays above

CCOC(=O)NC(=O)c1cn(CCN2CCN(C(=O)CCCCCCCCCCNc3ncnc4c3ncn4C3OC(CO)C(O)C3O)CC2)c(=O)[nH]c1=O (configuration not stated)
not listed: NCI-H522 lung | OVCAR-4 ovarian | RXF 393 renal | OVCAR-5 ovarian | RPMI-8226 leukemia | NCI-H226 lung | DMS 273 small cell lung | HOP-18 NSCLC
> 100 µM: all other assays above
